Here are results for 15 molecules from patent US10723741B1, “DNA polymerase IIIC inhibitors and use thereof” (Acurx Pharmaceuticals, LLC, priority 2018, dated 2020).

Each structure is given as a SMILES string. ≈ marks a conversion by molar mass, not a printed value.

Type in all cases: cell-based
The subject of assay [1] is Escherichia coli ATCC 25922. Briefly: Broth microdilution MIC, E. coli ATCC 25922 (MHIIB w & w/o 4 mM EDTA). Particulars: broth microdilution, 37° C., 20 hours; for MIC: Escherichia coli, ATCC25922, without EDTA, read-out: MIC E. coli ATCC 25922; for MIC E. coli ATCC 25922 + 4 mM EDTA: with 4 mM EDTA. In outline:
(§1)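 Two-fold dilutions from 64 to 0.0625 μg/ml final, 1% DMSO, were inoculated at ~5.0×10^5 cfu/ml in the strain's test medium and kept 20 h at 37 °C in ambient atmosphere. Colonies were grown on MHA, with S. pneumoniae on blood agar under 5% CO2.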
For orientation: Broth dilution looks for growth in wells or tubes with falling amounts of substance.

Assay [2] concerns Streptococcus pneumoniae ATCC 49619. In words: Broth microdilution MIC, S. pneumoniae ATCC 49619. Particulars: ATCC49619, broth microdilution, 37° C., 20 hours, read-out: MIC S. pneumoniae ATCC 49619. The method in brief:
as §1

Assay [3] relates to Staphylococcus aureus NRS384 (MRSA). In words: Broth microdilution MIC, S. aureus NRS384 (MRSA). Conditions: Staphylococcus aureus; broth microdilution, 37° C., 20 hours; read-out: MIC NRS 384 (MRSA). The method in brief: as §1
In assay [4] the test system is Enterococcus faecium ATCC 700221 (VRE). Briefly: Broth microdilution MIC, E. faecium ATCC 700221 (VRE). Particulars: Enterococcus faecium; broth microdilution, 37° C., 20 hours; read-out: MIC E. faecium ATCC 700221 (VRE). The method in brief:
as §1

Assay [5] has as its system Bacillus subtilis ATCC 6633. Briefly: Broth microdilution MIC, B. subtilis ATCC 6633. Conditions: ATCC6633, broth microdilution, 37° C., 20 hours, read-out: MIC B. subtilis ATCC 6633. The method in brief:
as §1

In assay [6] the test system is Enterococcus faecalis ATCC 29212. Briefly: Broth microdilution MIC, E. faecalis ATCC 29212. Particulars: ATCC29212, broth microdilution, 37° C., 20 hours, read-out: MIC E. faecalis ATCC 29212. The method in brief:
as §1

For assay [7], the system named is Staphylococcus aureus ATCC 29213 (MSSA). Briefly: Broth microdilution MIC, S. aureus ATCC 29213 (MSSA). Particulars: broth microdilution, 37° C., 20 hours, read-out: MIC S. aureus ATCC 29213 (MSSA). In outline:
as §1

The MIC is the lowest concentration found to suppress growth.

Consider `Cc1noc(C)c1C(=O)N(C)CCn1ncc2nc(NCc3ccc(Cl)c(Cl)c3)[nH]c(=O)c21` [Compound 80, N-(2-(5-((3,4-dichlorobenzyl)amino)-7-oxo-6,7-dihydro-1H-pyrazolo[4,3-d]pyrimidin-1-yl)ethyl)-N,3,5-trimethylisoxazole-4-carboxamide], for which the MIC was over 64 µg/mL in assay [1]; 8 µg/mL (≈ 16.3 µM) in assay [2]; 32 µg/mL (≈ 65.3 µM) in assay [3]; 16 µg/mL (≈ 32.6 µM) in assay [4]; 16 µg/mL (≈ 32.6 µM) in assay [5]; 32 µg/mL (≈ 65.3 µM) in assay [6]. Moreover, the MIC in assay [7] turned out to be 32 µg/mL (≈ 65.3 µM). For the same molecule, in assay [1], the “MIC E. coli ATCC 25922 + 4 mM EDTA” value was found to be 64 µg/mL.
For `C[C@@H](O)Cn1ncc2nc(NCc3ccc(Cl)c(Cl)c3)[nH]c(=O)c21` [Compound 239, (R)-5-((3,4-dichlorobenzyl)amino)-1-(2-hydroxypropyl)-1H-pyrazolo[4,3-d]pyrimidin-7(6H)-one], the MIC in assay [1] was over 64 µg/mL; in assay [2], 8 µg/mL (≈ 21.7 µM); in assay [3], 4 µg/mL (≈ 10.9 µM); in assay [4], 2 µg/mL (≈ 5.43 µM); in assay [5], 2 µg/mL (≈ 5.43 µM); in assay [6], 8 µg/mL (≈ 21.7 µM). Also, the MIC in assay [7] was determined as 4 µg/mL (≈ 10.9 µM). In addition, the “MIC E. coli ATCC 25922 + 4 mM EDTA” value in assay [1] is over 64 µg/mL.
For `O=C(c1cocn1)N1CCC(n2ncc3nc(NCc4ccc(Cl)c(Cl)c4)[nH]c(=O)c32)CC1` [Compound 253, 5-[(3,4-Dichlorophenyl)methylamino]-1-[1-(oxazole-4-carbonyl)-4-piperidyl]-6H-pyrazolo[4,3-d]pyrimidin-7-one], the MIC is over 64 µg/mL in assay [1]; 2 µg/mL (≈ 4.1 µM) in assay [2]; 2 µg/mL (≈ 4.1 µM) in assay [3]; 2 µg/mL (≈ 4.1 µM) in assay [4]; 1 µg/mL (≈ 2.05 µM) in assay [5]; 4 µg/mL (≈ 8.19 µM) in assay [6]. Moreover, the MIC in assay [7] is 2 µg/mL (≈ 4.1 µM). The “MIC E. coli ATCC 25922 + 4 mM EDTA” value in assay [1] is over 64 µg/mL.
For `COCCN1CCC(n2ncc3nc(NCc4ccc(Cl)c(Cl)c4)[nH]c(=O)c32)CC1.Cl` [Compound 157, 5-((3,4-dichlorobenzyl)amino)-1-(1-(2-methoxyethyl)piperidin-4-yl)-1H-pyrazolo[4,3-d]pyrimidin-7(6H)-one hydrochloride], the MIC in assay [1] was over 64 µg/mL; in assay [2], 4 µg/mL; in assay [3], 4 µg/mL; in assay [4], 2 µg/mL; in assay [5], 2 µg/mL; in assay [6], 8 µg/mL. In addition, the minimal inhibitory concentration (MIC) in assay [7] came to 8 µg/mL. In addition, the “MIC E. coli ATCC 25922 + 4 mM EDTA” value in assay [1] was determined as 64 µg/mL.
On to `CS(=O)(=O)NC(=O)Cn1ncc2nc(NCc3ccc(Cl)c(Cl)c3)[nH]c(=O)c21` [Compound 165, 2-(5-((3,4-dichlorobenzyl)amino)-7-oxo-6,7-dihydro-1H-pyrazolo[4,3-d]pyrimidin-1-yl)-N-(methylsulfonyl)acetamide], for which the MIC in assay [1], in assay [2], in assay [3], in assay [4], in assay [5] and in assay [6] was over 64 µg/mL each time. For the same molecule, the MIC in assay [7] was over 64 µg/mL. Further, the “MIC E. coli ATCC 25922 + 4 mM EDTA” value in assay [1] was over 64 µg/mL.
Consider `CC(C(=O)O)n1cc2nc(NCc3ccc(Cl)c(Cl)c3)[nH]c(=O)c2n1` (stereo not drawn) [Compound 223, 2-(5-((3,4-dichlorobenzyl)amino)-7-oxo-6,7-dihydro-2H-pyrazolo[4,3-d]pyrimidin-2-yl)propanoic acid], for which the MIC in assay [1], in assay [2], in assay [3], in assay [4], in assay [5] and in assay [6] was over 64 µg/mL in each case. For the same molecule, the MIC in assay [7] was over 64 µg/mL. Besides, the “MIC E. coli ATCC 25922 + 4 mM EDTA” value in assay [1] is over 64 µg/mL.
As to `O=C(O)CCCn1ncc2nc(NCc3ccc(Cl)c(Cl)c3)[nH]c(=O)c21` [Compound 145, 4-(5-((3,4-Dichlorobenzyl)amino)-7-oxo-6,7-dihydro-1H-pyrazolo[4,3-d]pyrimidin-1-yl)butanoic acid], the MIC was over 64 µg/mL in assay [1]; 16 µg/mL (≈ 40.4 µM) in assay [2]; 64 µg/mL (≈ 162 µM) in assay [3]; 16 µg/mL (≈ 40.4 µM) in assay [4]; 32 µg/mL (≈ 80.8 µM) in assay [5]; 64 µg/mL (≈ 162 µM) in assay [6]. Also, in assay [7], the MIC was found to be 64 µg/mL (≈ 162 µM). Also, the “MIC E. coli ATCC 25922 + 4 mM EDTA” value in assay [1] is over 64 µg/mL.
For the molecule `O=c1[nH]c(NCc2ccc(Cl)c(Cl)c2)nc2cnn(CCO)c12` [Compound 76, 5-((3,4-dichlorobenzyl)amino)-1-(2-hydroxyethyl)-1H-pyrazolo[4,3-d]pyrimidin-7(6H)-one], the MIC is over 64 µg/mL in assay [1]; 4 µg/mL (≈ 11.3 µM) in assay [2]; 4 µg/mL (≈ 11.3 µM) in assay [3]; 2 µg/mL (≈ 5.65 µM) in assay [4]; 2 µg/mL (≈ 5.65 µM) in assay [5]; 4 µg/mL (≈ 11.3 µM) in assay [6]. In addition, the MIC in assay [7] came out at 4 µg/mL (≈ 11.3 µM). For the same molecule, the “MIC E. coli ATCC 25922 + 4 mM EDTA” value in assay [1] is over 64 µg/mL.
With `CC(C)(CCCn1ncc2nc(NCc3ccc(Cl)c(Cl)c3)[nH]c(=O)c21)C(=O)O` [Compound 199, 5-(5-((3,4-Dichlorobenzyl)amino)-7-oxo-6,7-dihydro-1H-pyrazolo[4,3-d]pyrimidin-1-yl)-2,2-dimethylpentanoic acid], the MIC in assay [1] was over 64 µg/mL; in assay [2], 8 µg/mL (≈ 18.3 µM); in assay [3], 16 µg/mL (≈ 36.5 µM); in assay [4], 8 µg/mL (≈ 18.3 µM); in assay [5], 32 µg/mL (≈ 73 µM); in assay [6], 16 µg/mL (≈ 36.5 µM). Besides, the MIC in assay [7] was 16 µg/mL (≈ 36.5 µM). In addition, the “MIC E. coli ATCC 25922 + 4 mM EDTA” value in assay [1] is over 64. ug/ml.
Consider `Cl.O=C(c1ccccn1)N1CCC(n2ncc3nc(NCc4ccc(Cl)c(Cl)c4)[nH]c(=O)c32)C1` (stereo not drawn) [Compound 257, 5-((3,4-Dichlorobenzyl)amino)-1-(1-picolinoylpyrrolidin-3-yl)-1H-pyrazolo[4,3-d]pyrimidin-7(6H)-one], for which the MIC was over 64 µg/mL in assay [1]; 4 µg/mL in assay [2]; 4 µg/mL in assay [3]; 4 µg/mL in assay [4]; 2 µg/mL in assay [5]; 8 µg/mL in assay [6]. Also, the MIC in assay [7] is 4 µg/mL. The “MIC E. coli ATCC 25922 + 4 mM EDTA” value in assay [1] is over 64 µg/mL.
Turning to `Cc1cc(CNc2nc3cnn(C)c3c(=O)[nH]2)ccc1Cl` [Compound 35, 5-((4-Chloro-3-methylbenzyl)amino)-1-methyl-1H-pyrazolo[4,3-d]pyrimidin-7(6H)-one], the MIC was over 64 µg/mL in assay [1]; 4 µg/mL (≈ 13.2 µM) in assay [2]; 2 µg/mL (≈ 6.58 µM) in assay [3]; 4 µg/mL (≈ 13.2 µM) in assay [4]; 2 µg/mL (≈ 6.58 µM) in assay [5]; 8 µg/mL (≈ 26.3 µM) in assay [6]. Besides, the MIC in assay [7] was determined as 4 µg/mL (≈ 13.2 µM). The “MIC E. coli ATCC 25922 + 4 mM EDTA” value in assay [1] was over 64 µg/mL.
For `CN1CCN(CCn2ncc3nc(NCc4ccc(Cl)c(Cl)c4)[nH]c(=O)c32)CC1` [Compound 58, 5-((3,4-Dichlorobenzyl)amino)-1-(2-(4-methylpiperazin-1-yl)ethyl)-1H-pyrazolo[4,3-d]pyrimidin-7(6H)-one], the MIC in assay [1] is over 64 µg/mL; in assay [2], 4 µg/mL (≈ 9.17 µM); in assay [3] it was 8 µg/mL (≈ 18.3 µM); in assay [4], 4 µg/mL (≈ 9.17 µM); in assay [5] it was 2 µg/mL (≈ 4.58 µM); in assay [6] it was 8 µg/mL (≈ 18.3 µM). The MIC in assay [7] turned out to be 16 µg/mL (≈ 36.7 µM). For the same molecule, in assay [1], the “MIC E. coli ATCC 25922 + 4 mM EDTA” value was over 64 µg/mL.
With `O=c1[nH]c(NCc2ccc(Cl)c(Cl)c2)nc2cnn(CCN3CCNCC3)c12` [Compound 74, 5-((3,4-dichlorobenzyl)amino)-1-(2-(piperazin-1-yl)ethyl)-1H-pyrazolo[4,3-d]pyrimidin-7(6H)-one], the MIC in assay [1] is over 64 µg/mL; in assay [2] it was 16 µg/mL (≈ 37.9 µM); in assay [3] it was 64 µg/mL (≈ 152 µM); in assay [4], 16 µg/mL (≈ 37.9 µM); in assay [5], 8 µg/mL (≈ 18.9 µM); in assay [6], 64 µg/mL (≈ 152 µM). For the same molecule, the MIC in assay [7] is 32 µg/mL (≈ 75.8 µM). In assay [1], the “MIC E. coli ATCC 25922 + 4 mM EDTA” value was over 64 µg/mL.
`C[C@H](O)Cn1ncc2nc(NCc3ccc(Cl)c(Cl)c3)[nH]c(=O)c21` [Compound 240, (S)-5-((3,4-dichlorobenzyl)amino)-1-(2-hydroxypropyl)-1H-pyrazolo[4,3-d]pyrimidin-7(6H)-one]: the MIC in assay [1] was over 64 µg/mL; in assay [2], 4 µg/mL (≈ 10.9 µM); in assay [3], 4 µg/mL (≈ 10.9 µM); in assay [4], 4 µg/mL (≈ 10.9 µM); in assay [5], 2 µg/mL (≈ 5.43 µM); in assay [6], 8 µg/mL (≈ 21.7 µM). In addition, in assay [7], the MIC stood at 4 µg/mL (≈ 10.9 µM). Also, in assay [1], the “MIC E. coli ATCC 25922 + 4 mM EDTA” value is over 64 µg/mL.
For the molecule `O=c1[nH]c(NCc2ccc(Cl)c(Cl)c2)nc2cnn(CCCO)c12` [Compound 123, 5-((3,4-Dichlorobenzyl)amino)-1-(3-hydroxypropyl)-1H-pyrazolo[4,3-d]pyrimidin-7(6H)-one], the MIC is over 64 µg/mL in assay [1]; 2 µg/mL (≈ 5.43 µM) in assay [2]; 2 µg/mL (≈ 5.43 µM) in assay [3]; 1 µg/mL (≈ 2.72 µM) in assay [4]; 0.5 µg/mL (≈ 1.36 µM) in assay [5]; 4 µg/mL (≈ 10.9 µM) in assay [6]. Besides, the MIC in assay [7] was found to be 2 µg/mL (≈ 5.43 µM). In addition, in assay [1], the “MIC E. coli ATCC 25922 + 4 mM EDTA” value is over 64 µg/mL.
